The text below walks through data of patent US8129366B2, “VLA-4 inhibitory drug” (Daiichi Sankyo Company, Limited, priority 2005, dated 2012).

For this assay, the target named is T1, hα4 and β1 integrins (Homo sapiens, UniProt P05556+P13612).
T1 construct: expressed in transfected cells; host or cells: CHO cells
As to the kind of experiment: In vitro inhibition of binding between CHO cells expressing hα4 and β1 integrins and Eu3+-hVCAM-1 D1D7-IgG. The settings on record: for Ki: CHO cells expressing hα4 and β1 integrins, Eu3+-hVCAM-1 D1D7-IgG ligand, without HSA; for IC50: in the presence of 3% human serum albumin (HSA final concentration 3%). On the procedure: CHO cells which forcibly expressed hα4 and β1 integrins through transfection thereof, were inoculated into a Costar 3599 plate (3×10^4 cells/100 μl/well), and cultured for two days. The cells in the wells were washed two times with buffer A*, and then Eu^3+-hVCAM-1 D1D7-IgG diluted with assay buffer** to 2 nM was added in an amount of 50 μl/well. The substance under test diluted with 26 DMSO-assay buffer (in the co-presence or absence of 6% human serum albumin) was added in an amount of 50 μl/well (adding separately diluted solution to the wells for performing Scatchard analysis), the contents were stirred for 5 minutes with a plate mixer, and then the plate was left to stand still for one hour at room temperature. The binding inhibitory activity in the presence of human serum albumin (HSA) was examined by diluting the specimen with 26 DMSO-assay buffer containing 6% HSA (SIGMA Corp., c/n A-1653), and adding the resultant (HSA final concentration 3%). After 30 to 60 minutes of the addition of specimen, the plate contents were washed 4 times with buffer A at 4° C., an enhancing reagent (DELFIA SA) was added in an amount of 100 μl/well, and the plate was shaken for 5 minutes using a plate mixer. Subsequently, the fluorescence intensity was measured with a time-resolved fluorometer (DELFIA Wallac). The IC50 of the substance under test (the concentration for 50% inhibition of the binding between CHO cells and Eu^3+-hVCAM-1 D1D7-IgG) was determined from the binding rate obtained from the calculating expression of [(FT−FNS)−(FI−FNS)]/[(FT−FNS)]×100. Here, FT represents the fluorescence intensity of a well not containing the substance under test; FNS represents the fluorescence intensity of a well not containing the substance under test and hVCAM-1 D1D7-IgG; and FI represents the fluorescence intensity of a well containing the substance under test. The Kd value which represents the strength of binding, and Bmax (maximum binding amount) were estimated to be in the range of 0.06 to 20 nM according to the Scatchard analysis method. The evaluation results of the Ki value of the substance under test, and of the IC50 value in the presence of 3% HSA are presented in Tables 2 to 7.
The Ki value was calculated according to the above-described expression. ([L] is the ligand concentration)
[* buffer A: 25 mM HEPES (pH 7.5), 150 mM NaCl, 1 mM Ca^2+, 1 mM Mg^2+, 4 mM Mn2+;
** assay buffer: 25 mM HEPES (pH=7.5), 150 mM NaCl, 1 mM Ca^2+, 1 mM Mg^2+, 4 mM Mn^2+, 0.1% BSA, 20 μM DTPA, with/without 6% ALBUMIN, HUMAN SERUM (C/N A-1653, SIGMA)]

T1 sequence (P13612 34-1032): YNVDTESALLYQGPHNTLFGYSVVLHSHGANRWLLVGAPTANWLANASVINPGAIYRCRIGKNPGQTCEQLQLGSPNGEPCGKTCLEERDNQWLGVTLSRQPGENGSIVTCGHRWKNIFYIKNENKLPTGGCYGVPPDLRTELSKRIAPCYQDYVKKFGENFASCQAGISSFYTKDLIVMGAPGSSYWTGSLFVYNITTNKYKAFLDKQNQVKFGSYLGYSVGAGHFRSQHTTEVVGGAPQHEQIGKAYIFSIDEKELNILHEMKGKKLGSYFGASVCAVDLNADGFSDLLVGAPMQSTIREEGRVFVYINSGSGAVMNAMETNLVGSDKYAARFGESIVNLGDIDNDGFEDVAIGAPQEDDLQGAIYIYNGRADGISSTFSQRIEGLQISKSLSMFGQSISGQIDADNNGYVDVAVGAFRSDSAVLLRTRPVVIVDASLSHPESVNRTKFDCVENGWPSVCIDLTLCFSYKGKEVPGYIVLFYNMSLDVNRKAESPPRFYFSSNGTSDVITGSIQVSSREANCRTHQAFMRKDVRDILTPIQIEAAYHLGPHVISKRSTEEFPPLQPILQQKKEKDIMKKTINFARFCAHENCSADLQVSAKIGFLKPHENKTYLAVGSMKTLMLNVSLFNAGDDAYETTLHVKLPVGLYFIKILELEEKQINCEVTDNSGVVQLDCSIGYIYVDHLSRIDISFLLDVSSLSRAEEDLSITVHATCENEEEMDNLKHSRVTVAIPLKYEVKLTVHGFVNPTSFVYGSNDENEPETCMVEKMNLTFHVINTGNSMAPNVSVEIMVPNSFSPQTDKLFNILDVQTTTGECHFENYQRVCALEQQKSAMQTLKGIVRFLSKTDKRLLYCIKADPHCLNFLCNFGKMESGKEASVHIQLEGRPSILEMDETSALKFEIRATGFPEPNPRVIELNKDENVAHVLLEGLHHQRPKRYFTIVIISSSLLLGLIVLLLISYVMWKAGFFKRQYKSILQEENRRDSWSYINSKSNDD
T1 sequence (P05556 21-798): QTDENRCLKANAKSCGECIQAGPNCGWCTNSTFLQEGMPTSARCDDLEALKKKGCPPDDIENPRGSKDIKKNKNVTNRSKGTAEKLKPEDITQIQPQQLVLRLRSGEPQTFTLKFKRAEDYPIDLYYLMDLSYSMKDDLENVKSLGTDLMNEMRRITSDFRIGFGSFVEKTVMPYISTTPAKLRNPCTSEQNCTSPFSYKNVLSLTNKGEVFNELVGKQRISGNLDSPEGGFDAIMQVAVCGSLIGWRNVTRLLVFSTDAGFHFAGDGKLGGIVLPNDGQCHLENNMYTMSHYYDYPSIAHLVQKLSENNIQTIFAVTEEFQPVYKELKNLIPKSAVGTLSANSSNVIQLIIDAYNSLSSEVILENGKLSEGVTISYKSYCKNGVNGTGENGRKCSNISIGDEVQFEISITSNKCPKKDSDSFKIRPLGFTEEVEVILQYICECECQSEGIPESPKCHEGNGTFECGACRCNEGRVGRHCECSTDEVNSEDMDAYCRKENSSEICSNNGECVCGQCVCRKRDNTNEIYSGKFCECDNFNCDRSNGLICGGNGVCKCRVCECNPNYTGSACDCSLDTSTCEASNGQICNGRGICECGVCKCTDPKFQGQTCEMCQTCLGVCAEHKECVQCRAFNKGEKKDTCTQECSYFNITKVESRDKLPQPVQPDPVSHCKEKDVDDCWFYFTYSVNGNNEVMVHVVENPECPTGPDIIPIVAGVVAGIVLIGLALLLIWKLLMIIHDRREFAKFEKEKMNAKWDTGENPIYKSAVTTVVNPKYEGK

Consider `COC1CN([C@H]2C[C@@H](CO[C@H]3CC[C@H](C(=O)O)CC3)N(C(=O)Cc3cc(Cl)c(NC(=O)c4coc5ccccc45)cc3Cl)C2)C1` [Example 6, Trans-4-[1-[[4-[(benzo[b]furan-3-ylcarbonyl)amino]-2,5-dichlorophenyl]acetyl]-(4S)-(3-methoxyazetidin-1-yl)-(2S)-pyrrolidinylmethoxy]cyclohexanecarboxylic acid], for which the Ki (commonly the dissociation constant of the complex between target and ligand, obtained from inhibition or displacement) came out at 5.9 nM; the half-maximal inhibitory concentration (IC50) (as a rule, the point on the concentration scale where inhibition reaches its midpoint) worked out at 76 nM.

Consider `O=C(Nc1cc(F)c(CC(=O)N2C[C@@H](N3CCC3)C[C@H]2CO[C@H]2CC[C@H](C(=O)O)CC2)cc1Cl)c1csc2ccccc12` [Example 9, Trans-4-[(4S)-(azetidin-1-yl)-1-[[4-[(benzo[b]thiophen-3-ylcarbonyl)amino]-5-chloro-2-fluorophenyl]acetyl]-(2S)-pyrrolidinylmethoxy]cyclohexanecarboxylic acid], for which the Ki came out at 1.4 nM and the IC50 turned out to be 8.2 nM.

Consider `CC1CN([C@H]2C[C@@H](CO[C@H]3CC[C@H](C(=O)O)CC3)N(C(=O)Cc3cc(Cl)c(NC(=O)c4coc5ccccc45)cc3F)C2)C1` [Example 11, Trans-4-[1-[[4-[(benzo[b]furan-3-ylcarbonyl)amino]-5-chloro-2-fluorophenyl]acetyl]-(4S)-(3-methylazetidin-1-yl)-(2S)-pyrrolidinylmethoxy]cyclohexanecarboxylic acid], for which the affinity corresponds to a Ki of 3.5 nM and the IC50 came to 21 nM.

As to `O=C(Nc1cc(F)c(CC(=O)N2C[C@@H](N3CC(CF)C3)C[C@H]2CO[C@H]2CC[C@H](C(=O)O)CC2)cc1Cl)c1coc2ccccc12` [Example 13, Trans-4-[1-[[4-[(benzo[b]furan-3-ylcarbonyl)amino]-5-chloro-2-fluorophenyl]acetyl]-(4S)-[3-(fluoromethyl)azetidin-1-yl]-(2S)-pyrrolidinylmethoxy]cyclohexanecarboxylic acid], the inhibition constant Ki came to 7.7 nM and the IC50 amounted to 64 nM.

For `COC1(C)CN([C@H]2C[C@@H](CO[C@H]3CC[C@H](C(=O)O)CC3)N(C(=O)Cc3cc(Cl)c(NC(=O)c4cn(C)c5ccccc45)cc3F)C2)C1` [Example 16, Trans-4-[1-[[5-chloro-2-fluoro-4-[(1-methyl-1H-indol-3-ylcarbonyl)amino]phenyl]acetyl]-(4S)-(3-methoxy-3-methylazetidin-1-yl)-(2S)-pyrrolidinylmethoxy]cyclohexanecarboxylic acid], the Ki was 5.3 nM and the IC50 worked out at 41 nM.

`CCC1(OC)CN([C@H]2C[C@@H](CO[C@H]3CC[C@H](C(=O)O)CC3)N(C(=O)Cc3cc(Cl)c(NC(=O)c4csc5ccccc45)cc3F)C2)C1` [Example 17, Trans-4-[1-[[4-[(benzo[b]thiophen-3-ylcarbonyl)amino]-5-chloro-2-fluorophenyl]acetyl]-(4S)-(3-ethyl-3-methoxyazetidin-1-yl)-(2S)-pyrrolidinylmethoxy]cyclohexanecarboxylic acid]: the Ki came to 1.8 nM and the IC50 was 48 nM.

With `CN(C)C1CN([C@H]2C[C@@H](CO[C@H]3CC[C@H](C(=O)O)CC3)N(C(=O)Cc3cc(Cl)c(NC(=O)c4csc5ccccc45)cc3Cl)C2)C1` [Example 23, Trans-4-[1-[[4-[(benzo[b]thiophen-3-ylcarbonyl)amino]-2,5-dichlorophenyl]acetyl]-(4S)-[3-(N,N-dimethylamino)azetidin-1-yl]-(2S)-pyrrolidinylmethoxy]cyclohexanecarboxylic acid], the affinity, expressed as Ki, was 2.5 nM and the IC50 came out at 14 nM.

For `Cn1cc(C(=O)Nc2cc(F)c(CC(=O)N3C[C@@H](N4CC[C@H](F)C4)C[C@H]3CO[C@H]3CC[C@H](C(=O)O)CC3)cc2Cl)c2ccccc21` [Example 37, Trans-4-[1-[[5-chloro-2-fluoro-4-[(1-methyl-1H-indol-3-ylcarbonyl)amino]phenyl]acetyl]-(4S)-[(3S)-fluoropyrrolidin-1-yl]-(2S)-pyrrolidinylmethoxy]cyclohexanecarboxylic acid], the Ki turned out to be 2.1 nM and the 50% inhibitory concentration (IC50) came out at 9.2 nM.

For `O=C(Nc1cc(F)c(CC(=O)N2C[C@@H](N3CCC(F)(F)C3)C[C@H]2CO[C@H]2CC[C@H](C(=O)O)CC2)cc1Cl)c1csc2ccccc12` [Example 38, Trans-4-[1-[[4-[(benzo[b]thiophen-3-ylcarbonyl)amino]-5-chloro-2-fluorophenyl]acetyl]-(4S)-(3,3-difluoropyrrolidin-1-yl)-(2S)-pyrrolidinylmethoxy]cyclohexanecarboxylic acid], the affinity corresponds to a Ki of 1.7 nM and the IC50 came out at 24 nM.

`O=C(Nc1cc(F)c(CC(=O)N2C[C@@H](N3CCC4(CC4)C3)C[C@H]2CO[C@H]2CC[C@H](C(=O)O)CC2)cc1Cl)c1csc2ccccc12` [Example 39, Trans-4-[(4S)-(5-azaspiro[2.4]heptan-5-yl)-1-[[4-[(benzo[b]thiophen-3-ylcarbonyl)amino]-5-chloro-2-fluorophenyl]acetyl]-(2S)-pyrrolidinylmethoxy]cyclohexanecarboxylic acid]: affinity was put at a Ki of 0.64 nM and the IC50 was 4.9 nM.

Consider `CC1CCCN1[C@H]1C[C@@H](CO[C@H]2CC[C@H](C(=O)O)CC2)N(C(=O)Cc2cc(Cl)c(NC(=O)c3csc4ccccc34)cc2F)C1` (stereo partly drawn) [Example 40, Trans-4-[1-[[4-[(benzo[b]thiophen-3-ylcarbonyl)amino]-5-chloro-2-fluorophenyl]acetyl]-(4S)-(2-methylpyrrolidin-1-yl)-(2S)-pyrrolidinylmethoxy]cyclohexanecarboxylic acid], for which the inhibition constant (Ki) came to 2 nM and the IC50 is 9.1 nM.

As to `CCOC[C@@H]1CCCN1[C@H]1C[C@@H](CO[C@H]2CC[C@H](C(=O)O)CC2)N(C(=O)Cc2cc(Cl)c(NC(=O)c3csc4ccccc34)cc2Cl)C1` [Example 43, Trans-4-[1-[[4-[(benzo[b]thiophen-3-ylcarbonyl)amino]-2,5-dichlorophenyl]acetyl]-(4S)-[(2S)-ethoxymethylpyrrolidin-1-yl]-(2S)-pyrrolidinylmethoxy]cyclohexanecarboxylic acid], the Ki stood at 2 nM and the 50% inhibitory concentration (IC50) amounted to 38 nM.

Regarding `COC[C@H]1CCCN1[C@H]1C[C@@H](CO[C@H]2CC[C@H](C(=O)O)CC2)N(C(=O)Cc2cc(Cl)c(NC(=O)c3csc4ccccc34)cc2F)C1` [Example 44, Trans-4-[1-[[4-[(benzo[b]thiophen-3-ylcarbonyl)amino]-5-chloro-2-fluorophenyl]acetyl]-(4S)-[(2R)-methoxymethylpyrrolidin-1-yl]-(2S)-pyrrolidinylmethoxy]cyclohexanecarboxylic acid], the affinity, expressed as Ki, was 6.8 nM and the IC50 turned out to be 24 nM.

Consider `COC[C@@H]1C[C@H](F)CN1[C@H]1C[C@@H](CO[C@H]2CC[C@H](C(=O)O)CC2)N(C(=O)Cc2cc(Cl)c(NC(=O)c3cn(C)c4ccccc34)cc2Cl)C1` [Example 45, Trans-4-[1-[[2,5-dichloro-4-[(1-methyl-1H-indol-3-ylcarbonyl)amino]phenyl]acetyl]-(4S)-[(4S)-fluoro-(2S)-methoxymethylpyrrolidin-1-yl]-(2S)-pyrrolidinylmethoxy]cyclohexane carboxylic acid], for which the Ki came out at 14 nM and the IC50 was determined as 15 nM.

`C[C@@H]1CC[C@@H](C)N1[C@H]1C[C@@H](CO[C@H]2CC[C@H](C(=O)O)CC2)N(C(=O)Cc2cc(Cl)c(NC(=O)c3coc4ccccc34)cc2F)C1` [Example 47, Trans-4-[1-[[4-[(benzo[b]furan-3-ylcarbonyl)amino]-5-chloro-2-fluorophenyl]acetyl]-(4S)-[(2R,5R)-dimethylpyrrolidin-1-yl]-(2S)-pyrrolidinylmethoxy]cyclohexanecarboxylic acid]: the Ki worked out at 18 nM and the IC50 turned out to be 52 nM.

`COC[C@H]1CC[C@H](COC)N1[C@H]1C[C@@H](CO[C@H]2CC[C@H](C(=O)O)CC2)N(C(=O)Cc2cc(Cl)c(NC(=O)c3csc4ccccc34)cc2F)C1` [Example 49]: the Ki worked out at 4 nM and the IC50 came out at 62 nM.
